Legend:
Assay type in all cases: in vivo
Set-up in all cases: key: 0 is no effect; 10 is complete control
[1] = tested on: bamyardgrass (Echinochloa crus-galli); assay: Test B flood test
Method: (§1) At the same time, these crop and weed species were also treated with postemergence applications of test chemicals formulated in the same manner. Plants ranged in height from 2 to 18 cm (1- to 4-leaf stage) for postemergence treatments. Plant species in the flood test consisted of rice (Oryza sativa), smallflower flatsedge (Cyperus difformis), duck salad (Heteranthera limosa) and bamyardgrass (Echinochloa crus-galli) grown to the 2-leaf stage for testing. Treated plants and controls were maintained in a greenhouse for twelve to sixteen days, after which all species were compared to controls and visually evaluated. Plant response ratings, summarized in Table B, are based on a scale of 0 to 10 where 0 is no effect and 10 is complete control. A dash (−) response means no test result.

[2] = tested on: smallflower flatsedge (Cyperus difformis); assay: Test B flood test
Method: as §1

[3] = tested on: rice (Oryza sativa); assay: Test B flood test
Method: as §1

[4] = tested on: duck salad (Heteranthera limosa); assay: Test B flood test
Method: as §1

[5] = tested on: velvetleaf (Abutilon theophrasti); assay: Test B pre-/postemergence
From the text: (§2) Seeds of bedstraw (Galium aparine), blackgrass (Alopecurus myosuroides), broadleaf signalgrass (Brachiaria decumbens), cocklebur (Xanthium strumarium), corn (Zea mays), crabgrass (Digitaria sanguinalis), giant foxtail (Setaria faberii), lambsquarters (Chenopodium album), momingglory (Ipomoea hederacea), pigweed (Amaranthus retroflexus), rape (Brassica napus), soybean (Glycine max), sugar beet (Beta vulgaris), velvetleaf (Abutilon theophrasti), wheat (Triticum aestivum), wild oat (Avena fatua) and purple nutsedge (Cyperus rotundus) tubers were planted and treated preemergence with test chemicals formulated in a non-phytotoxic solvent mixture which included a surfactant.
as §1

[6] = tested on: corn (Zea mays); assay: Test B pre-/postemergence
From the text: as §2, §1

[7] = tested on: pigweed (Amaranthus retroflexus); assay: Test B pre-/postemergence
From the text: as §2, §1

[8] = tested on: sugar beet (Beta vulgaris); assay: Test B pre-/postemergence
From the text: as §2, §1

[9] = tested on: soybean (Glycine max); assay: Test B pre-/postemergence
From the text: as §2, §1

[10] = tested on: rape (Brassica napus); assay: Test B pre-/postemergence
From the text: as §2, §1

[11] = tested on: wild oat (Avena fatua); assay: Test B pre-/postemergence
From the text: as §2, §1

[12] = tested on: momingglory (Ipomoea hederacea); assay: Test B pre-/postemergence
From the text: as §2, §1

[13] = tested on: wheat (Triticum aestivum); assay: Test B pre-/postemergence
From the text: as §2, §1

[14] = tested on: broadleaf signalgrass (Brachiaria decumbens); assay: Test B pre-/postemergence
From the text: as §2, §1

[15] = tested on: cocklebur (Xanthium strumarium); assay: Test B pre-/postemergence
From the text: as §2, §1

[16] = tested on: bedstraw (Galium aparine); assay: Test B pre-/postemergence
From the text: as §2, §1

[17] = tested on: crabgrass (Digitaria sanguinalis); assay: Test B pre-/postemergence
From the text: as §2, §1

[18] = tested on: blackgrass (Alopecurus myosuroides); assay: Test B pre-/postemergence
From the text: as §2, §1

[19] = tested on: giant foxtail (Setaria faberii); assay: Test B pre-/postemergence
From the text: as §2, §1

[20] = Rate 62 g/ha, Postemergence (flood test)
[21] = Rate 125 g/ha, Postemergence section (flood test species)
[22] = Rate 250 g/ha, Postemergence (flood test species)
[23] = Preemergence, Rate 62 g/ha, scale of 0 to 10

CCc1cnc(-n2ccc(C(F)(F)F)n2)nc1C(=O)c1cccc(C#N)c1 [Compound 72]
Barnyardgrass plant response rating [1, 20]: 2
Barnyardgrass plant response rating [1, 21]: 3
Plant response rating, Barnyardgrass [1, 22]: 6
S. Flatsedge plant response rating [2, 20]: 3
S. Flatsedge plant response rating [2, 21]: 3
Plant response rating, S. Flatsedge [2, 22]: 4
Rice plant response rating [3, 20]: 0
Rice plant response rating [3, 21]: 0
Plant response rating, Rice [3, 22]: 2
Ducksalad plant response rating [4, 20]: 2
Ducksalad plant response rating [4, 21]: 2
Plant response rating, Ducksalad [4, 22]: 3
Plant response rating, Velvetleaf [5, 23]: 3
Velvetleaf plant response rating ([5]; Rate 62 g/ha, Postemergence): 2
Velvetleaf plant response rating ([5]; Rate 125 g/ha, Postemergence): 3
Plant response rating, Velvetleaf ([5]; Rate 125 g/ha, Preemergence): 4
Plant response rating, Velvetleaf ([5]; Rate 250 g/ha, Postemergence): 5
Plant response rating, Velvetleaf ([5]; Rate 250 g/ha, Preemergence): 7
Plant response rating, Corn [6, 23]: 3
Corn plant response rating ([6]; Rate 62 g/ha, Postemergence): 2
Corn plant response rating ([6]; Rate 125 g/ha, Postemergence): 3
Plant response rating, Corn ([6]; Rate 125 g/ha, Preemergence): 4
Plant response rating, Corn ([6]; Rate 250 g/ha, Postemergence): 5
Plant response rating, Corn ([6]; Rate 250 g/ha, Preemergence): 5
Plant response rating, Redroot pigweed [7, 23]: 7
Redroot pigweed plant response rating ([7]; Rate 62 g/ha, Postemergence): 8
Redroot pigweed plant response rating ([7]; Rate 125 g/ha, Postemergence): 9
Plant response rating, Redroot pigweed ([7]; Rate 125 g/ha, Preemergence): 9
Plant response rating, Redroot pigweed ([7]; Rate 250 g/ha, Postemergence): 9
Plant response rating, Redroot pigweed ([7]; Rate 250 g/ha, Preemergence): 9
Plant response rating, Sugarbeets [8, 23]: 8
Sugarbeets plant response rating ([8]; Rate 62 g/ha, Postemergence): 9
Sugarbeets plant response rating ([8]; Rate 125 g/ha, Postemergence): 9
Plant response rating, Sugarbeets ([8]; Rate 125 g/ha, Preemergence): 10
Plant response rating, Sugarbeets ([8]; Rate 250 g/ha, Postemergence): 9
Plant response rating, Sugarbeets ([8]; Rate 250 g/ha, Preemergence): 10
Plant response rating, Soybean [9, 23]: 0
Soybean plant response rating ([9]; Rate 62 g/ha, Postemergence): 2
Soybean plant response rating ([9]; Rate 125 g/ha, Postemergence): 2
Plant response rating, Soybean ([9]; Rate 125 g/ha, Preemergence): 3
Plant response rating, Soybean ([9]; Rate 250 g/ha, Postemergence): 5
Plant response rating, Soybean ([9]; Rate 250 g/ha, Preemergence): 3
Plant response rating, Rape [10, 23]: 4
Rape plant response rating ([10]; Rate 62 g/ha, Postemergence): 3
Rape plant response rating ([10]; Rate 125 g/ha, Postemergence): 7
Plant response rating, Rape ([10]; Rate 125 g/ha, Preemergence): 5
Plant response rating, Rape ([10]; Rate 250 g/ha, Postemergence): 7
Plant response rating, Rape ([10]; Rate 250 g/ha, Preemergence): 9
Plant response rating, Wild oats [11, 23]: 1
Wild oats plant response rating ([11]; Rate 62 g/ha, Postemergence): 2
Wild oats plant response rating ([11]; Rate 125 g/ha, Postemergence): 2
Plant response rating, Wild oats ([11]; Rate 125 g/ha, Preemergence): 2
Plant response rating, Wild oats ([11]; Rate 250 g/ha, Postemergence): 4
Plant response rating, Wild oats ([11]; Rate 250 g/ha, Preemergence): 3
Plant response rating, Morningglory [12, 23]: 2
Morningglory plant response rating ([12]; Rate 125 g/ha, Postemergence): 4
Plant response rating, Morningglory ([12]; Rate 125 g/ha, Preemergence): 3
Plant response rating, Morningglory ([12]; Rate 250 g/ha, Postemergence): 4
Plant response rating, Morningglory ([12]; Rate 250 g/ha, Preemergence): 8
Plant response rating, Wheat [13, 23]: 0
Wheat plant response rating ([13]; Rate 62 g/ha, Postemergence): 3
Wheat plant response rating ([13]; Rate 125 g/ha, Postemergence): 3
Plant response rating, Wheat ([13]; Rate 125 g/ha, Preemergence): 0
Plant response rating, Wheat ([13]; Rate 250 g/ha, Postemergence): 4
Plant response rating, Wheat ([13]; Rate 250 g/ha, Preemergence): 3
B. signalgrass plant response rating ([14]; Rate 62 g/ha, Postemergence): 2
B. signalgrass plant response rating ([14]; Rate 62 g/ha, Preemergence): 1
B. signalgrass plant response rating ([14]; Rate 125 g/ha, Postemergence): 4
Plant response rating, B. signalgrass ([14]; Rate 125 g/ha, Preemergence): 2
Plant response rating, B. signalgrass ([14]; Rate 250 g/ha, Postemergence): 6
Plant response rating, B. signalgrass ([14]; Rate 250 g/ha, Preemergence): 7
Plant response rating, Cocklebur [15, 23]: 0
Cocklebur plant response rating ([15]; Rate 62 g/ha, Postemergence): 3
Cocklebur plant response rating ([15]; Rate 125 g/ha, Postemergence): 4
Plant response rating, Cocklebur ([15]; Rate 125 g/ha, Preemergence): 0
Plant response rating, Cocklebur ([15]; Rate 250 g/ha, Postemergence): 4
Plant response rating, Cocklebur ([15]; Rate 250 g/ha, Preemergence): 0
Plant response rating, Bedstraw [16, 23]: 0
Plant response rating, Bedstraw ([16]; Rate 250 g/ha, Postemergence): 4
Plant response rating, Bedstraw ([16]; Rate 250 g/ha, Preemergence): 5
Plant response rating, Crabgrass [17, 23]: 6
Crabgrass plant response rating ([17]; Rate 62 g/ha, Postemergence): 4
Crabgrass plant response rating ([17]; Rate 125 g/ha, Postemergence): 6
Plant response rating, Crabgrass ([17]; Rate 125 g/ha, Preemergence): 9
Plant response rating, Crabgrass ([17]; Rate 250 g/ha, Postemergence): 8
Plant response rating, Crabgrass ([17]; Rate 250 g/ha, Preemergence): 9
Plant response rating, Blackgrass [18, 23]: 1
Blackgrass plant response rating ([18]; Rate 62 g/ha, Postemergence): 4
Blackgrass plant response rating ([18]; Rate 125 g/ha, Postemergence): 5
Plant response rating, Blackgrass ([18]; Rate 125 g/ha, Preemergence): 1
Plant response rating, Blackgrass ([18]; Rate 250 g/ha, Postemergence): 5
Plant response rating, Blackgrass ([18]; Rate 250 g/ha, Preemergence): 4
Plant response rating, Giant foxtail [19, 23]: 5
Giant foxtail plant response rating ([19]; Rate 62 g/ha, Postemergence): 5
Giant foxtail plant response rating ([19]; Rate 125 g/ha, Postemergence): 6
Plant response rating, Giant foxtail ([19]; Rate 125 g/ha, Preemergence): 5
Plant response rating, Giant foxtail ([19]; Rate 250 g/ha, Postemergence): 7
Plant response rating, Giant foxtail ([19]; Rate 250 g/ha, Preemergence): 7
